Test results: publication PMC10989073, “Antineoplastic effect of compounds C14 and P8 on TNBC and radioresistant TNBC cells by stabilizing the K-Ras4B^G13D/PDE6δ complex” (Frontiers in Oncology, 2024)
Like-named read-outs stand apart in the source and are kept apart here.

Legend:
Assay type in all cases: cell-based, human
MDA-MB-231 cells = assay: Clonogenic assay; details: MDA-MB-231, 10 to 12 days; C14 and P8 at IC50-48, cisplatin 100 µM, doxorubicin 0.5 µM
Procedure: (§1) The principal aim of a clonogenic assay is to evaluate the effect of chemotherapy agents or new drugs by the measurement of their ability to arrest tumor cell division and their ability to develop new colonies after their exposure to these new drugs ([56]). Therefore, the colony formation ability of the cell lines MCF-10A, MDA-MB-231, and MDA-MB-231RR was evaluated after their exposure to the C14 and P8 compounds. In brief, breast cancer cell lines were cultured in 6-well plates (Corning), seeding 300 cells per well, and incubated at 37°C in 5% CO2 for 24 h. Compounds C14 and P8 were added at the maximum evaluated concentration IC50-48. As controls, cells without treatment and cells treated in the presence of a vehicle (DMSO at 0.66%) were employed (Sigma-Aldrich). […] After 10 days of treatment, cells were fixed with 4% PFA and stained with 0.1% crystal violet in citric acid (Sigma-Aldrich) for 15 minutes. Subsequently, the dye present in the cells was extracted using isopropanol and read at 570 nm in a Synergy-HTX microplate reader (BioTek). Each test was performed in triplicate. Data were expressed as % colonies relative to the untreated control ([56]).

MDA-MB-231RR cells [1] = assay: Clonogenic assay; details: for reduction in colony formation: 10 to 12 days, C14 and P8 at IC50-48, cisplatin 100 µM, doxorubicin 0.5 µM
Procedure: as §1

MCF-10A cells [2] = assay: Apoptosis/necrosis assay (Annexin V–propidium iodide, flow cytometry)
Procedure: Apoptosis and necrosis were determined using the Apoptosis/Necrosis Detection kit (Abcam, Cambridge, UK) according to the manufacturer’s instructions. In brief, approximately 500,000 cells were seeded in 6-well plates (Corning) for 24 h. […] Cells were harvested and collected by centrifugation. All the samples were analyzed in triplicate using flow cytometry equipment FACSCalibur instrument (BD Biosciences, San Jose, CA, USA) at […] and 575-nm emission. Data analysis was performed using the FlowJo software (Tree Star Inc., Ashland, OR, USA). All experiments were performed in triplicate.

[3] = system: Ras-GTP in MDA-MB-231RR cells; assay: Ras activation pull-down assay (Raf-RBD); details: 3 h pre-treatment at IC50-48H, EGF 100 ng/ml 10 min
Procedure: (§2) Subsequently, the cells were stimulated with epidermal growth factor (EGF) (100 ng/ml) for 10 minutes. Lysates (1 mg/ml) were exposed to Ras GTP-binding protein (Raf-RBD), following the manufacturer’s instructions. Experiments for each cell type and condition were repeated three times.

[4] = system: Ras-GTP in MDA-MB-231 cells; assay: Ras activation pull-down assay (Raf-RBD); details: MDA-MB-231, 3 h pre-treatment at IC50-48H, EGF 100 ng/ml 10 min
Procedure: as §2

MDA-MB-231RR cells [5] = assay: XTT cell viability assay and IC50 determination; details: for IC50: XTT, ± SD
Procedure: (§3) In order to evaluate the effect of the C14 and P8 compounds over MCF-10A, MCF-7, MDA-MB-231, and […] cell lines, the IC50 of those molecules was determined. In brief, all the cell lines were seeded at a density of 15,000 cells per well in a 96-well microtiter plate (Corning) in a corresponding growth medium for 24 h. Then, cells were treated with increasing concentrations (from 0 to 200 μM) of the C14 and P8 compounds (Enamine, Kyiv, Ukraine). As a positive control, increased concentrations of cisplatin (from 0 to 200 µM) (Accord, Mexico City, Mexico) were employed. Due to that, dimethyl sulfoxide (DMSO) was used as a vehicle, and its increased concentrations were evaluated as the negative control. All the samples were maintained under growth conditions for 24 h and 48 h. At the end of each time, cell viability was determined using the XTT Cell Proliferation Kit II (Roche Applied Science, Mannheim, Germany) following the manufacturer’s protocol. The absorbance was measured in a spectrophotometer Synergy-HTX (BioTek) at a wavelength of 450–500 nm with a reference wavelength of 650 nm. Cell proliferation was expressed as a percentage of viability [(absorbance of treated cells/absorbance of untreated cells × 100)] ± SD.

MCF-10A cells [6] = assay: XTT cell viability assay and IC50 determination; details: for concentration required to observe any effect on cell viability: MCF-10A control cells, statistical analysis; for IC50: XTT, ± SD
Procedure: as §3

MCF-7 cells = assay: XTT cell viability assay and IC50 determination; details: ± SD
Procedure: as §3

[7] = system: AKT and ERK phosphorylation in MCF-10A cells; assay: Western blotting of pAKT and pERK; details: IC50-48 for 3 h, EGF 100 ng/ml 10 min, densitometry
Procedure: (§4) To determine the effect of the C14 and P8 compounds over the protein effectors of K-Ras4B, AKT, and ERK, immunoblotting assays were conducted with specific antibodies. In brief, MCF-10A, MDA-MB-231, and MDA-MB-231RR cells were plated in 100-mm culture dishes until 80% of confluents. Cell adhesion was allowed for 24 h. […] After pre-treatment, cells were stimulated with 100 ng/ml EGF for 10 minutes to promote AKT and ERK activation. Later, the whole-cell extracts were obtained by the lysis of the cells (Cytoskeleton) in the presence of proteases and phosphatase inhibitors. Subsequently, the protein extracts were incubated at 4°C for 40 minutes to be clarified by centrifugation for 10 minutes at 14,000 rpm, at 4°C. The protein concentration of each extract was determined by using the Precision Red Advanced Protein Assay Reagent (Cytoskeleton) Then, approximately 25 μg of protein extract was electrophoresed in 10% sodium dodecyl sulfate–polyacrylamide gel electrophoresis (SDS-PAGE) and transferred to polyvinylidene fluoride (PVDF) membranes (Millipore, Billerica, MA, USA). Blots were probed using the following primary antibodies: Total ERK (Cell Signaling, Danvers, MA, USA), pERK (Cell Signaling), Total AKT (Cell Signaling), pAKT (Cell Signaling), GSK3β (Cell Signaling), and cyclin D1 (Abcam) at a 1:1,000 dilution. As a control, an anti-GAPDH antibody (GeneTex, Irvine, CA, USA) was employed at a 1:100,000 dilution and γ-Tubulin (Invitrogen) 1:5,000. Densitometric analysis of blots was performed using the software ImageJ version 1.45 (National Institutes of Health, Bethesda, […], USA).

[8] = system: AKT and ERK phosphorylation in MDA-MB-231RR cells; assay: Western blotting of pAKT and pERK; details: IC50-48 for 3 h, EGF 100 ng/ml 10 min, densitometry
Procedure: as §4

[9] = MCF-10A, 24 h, read-out: IC50-24
[10] = MCF-10A, 48 h, read-out: IC50-48

Row | Compound | reduction in colony formation (MDA-MB-231 cells) | reduction in colony formation (MDA-MB-231RR cells [1]) | decrease in Ras-GTP levels [3] | reduction in Ras-GTP levels [4] | IC50 (MDA-MB-231RR cells [5]; 24 h, read-out: IC50-24) [µM] | concentration from which a significant inhibitory effect on viability is seen (MDA-MB-231RR cells [5]; 48 h) [µM] | IC50 (MDA-MB-231RR cells [5]; 48 h, read-out: IC50-48) [µM] | concentration required to observe any effect on cell viability (MCF-10A cells [6]) | IC50 (MCF-10A cells [6]; [9]) [µM] | IC50 (MCF-10A cells [6]; [10]) [µM] | IC50 (MCF-7 cells; MCF-7, 24 h, read-out: IC50-24) [µM] | IC50 (MCF-7 cells; MCF-7, 48 h, read-out: IC50-48) [µM] | reduction in pAKT [7] [%] | reduction in pERK [7] [%] | reduction in pAKT [8] [%] | reduction in pERK [8] | also measured
1 | CN(CC(=O)NC1CCOc2ccccc21)Cc1cccc(Cl)c1 (centres unmarked) [C14, 2-[(3-chlorophenyl)-methyl-methyl-amino]-N-croman-4-yl-acetamide] | up to 95% | up to 90% | approximately 20% | 20% | 128 ± 2.6 | ≥ 30 | 70.6 ± 3.5 | higher than 100 µM | > 200 | > 200 | 174 ± 19 | 134 ± 10.5 | 25 | 40 | > 70 | approximately 30% | colonies persisted (MDA-MB-231RR cells [1]; C14 at IC50-48): ~10%; viability (MCF-10A cells [2]; 24 h at IC50-24, flow cytometry): 91.1%
2 | N.N.[Cl][Pt][Cl] [Cisplatin, cisplatin, reference compound] | significant reduction | 99% |  |  | 200 |  | 104 ± 8.7 |  | 12 | 5.9 ± 1.6 | 150 ± 32.1 | 67.3 ± 20.6 |  |  |  |  | apoptosis cells (MCF-10A cells [2]; 24 h, cisplatin 100 µM, doxorubicin 0.5 µM): over 70%; reduction of cellular viability (MCF-10A cells [6]; MCF-10A, at low concentrations): more than 90%
3 | O=C(CN1CCN(c2cccc(Cl)c2)CC1)N[C@@H]1CCOc2ccccc21 [P8, 2-[4-(3-chlorophenyl)piperazin-1-yl]-N-[(4R)-chroman-4-yl]acetamide] | up to 95% | up to 99% | over 60% | over 80% |  | ≥ 10 |  | > 150 µM |  |  |  |  | 25 | 40 | > 70 | 35% | IC50 (MDA-MB-231RR cells [5]; Homo sapiens, 24 h, read-out: IC50-24): 163 ± 16.8 µM; IC50 (MDA-MB-231RR cells [5]; Homo sapiens, 48 h, read-out: IC50-48): 156 ± 28.4 µM; IC50 (MCF-10A cells [6]; Homo sapiens, MCF-10A, 24 h, read-out: IC50-24): > 200 µM; IC50 (MCF-10A cells [6]; Homo sapiens, MCF-10A, 48 h, read-out: IC50-48): > 200 µM; IC50 (MCF-7 cells; Homo sapiens, MCF7, MCF-7, 24 h, read-out: IC50-24): 185 ± 15.3 µM; IC50 (MCF-7 cells; Homo sapiens, MCF7, MCF-7, 48 h, read-out: IC50-48): 104 ± 49.8 µM
